Data as given in patent publication US20240124434A1, “ATF6 INHIBITORS AND USES THEREOF” (Altos Labs, Inc., priority 2018, published 2024).
Where two headings read alike, the source gives them in different places.

Tested on: ATF6
Experiment: ERSE ATF6-luciferase reporter assay (thapsigargin-induced ER stress)
Assay type: cell-based, human
Settings: Homo sapiens, U2OS, thapsigargin-induced ER stress, U2-OS ATF6 luc reporter cells; for inhibition at 1 µM: 8 hr
Experimental: Human bone osteosarcoma (U2-OS) cells were obtained from the American Type Culture Collection (ATCC HTB-96, ATCC Manassas, VA) and were cultured with growing medium containing Dulbecco's Modified Eagle's Medium (DMEM) (Cat. No.:SH30023.02, HyClone) supplemented with fetal bovine serum (FBS) 10% (Cat. No.: 16000044, Gibco) and 1% penicillin-streptomycin antibiotic cocktail (Cat. No.: SV30010, Hyclone).
Cignal Lenti ATF6 luc reporter (Qiagen #CLS-6031L) was used to produce a stable cell line in U2-OS cells. […] The number of response elements as well as the intervening sequence between response elements has been experimentally optimized to maximize the signal to noise ratio.
Compounds were prepared as 10 mM stock solutions and stored at −80° C.
U2-OS ATF6 luc reporter cells were thawed 3-4 days and split once prior to assays. […] At the day of experiment, cells were pre-treated for 30 min with 50 μL growing medium containing either vehicle (dimethyl sulfoxide (DMSO)) (Cat. No.: D2650, Sigma-Aldrich) or 1 μM test compound. After the pre-incubation time, 50 μL of a solution containing 0.2 μM thapsigargin (Tg)(an ER stress inducer) was added to respective wells. This Tg solution also contained vehicle or test compounds at 1 μM. The final concentration of DMSO in each well was kept at 0.3%. Plates were incubated for 8 hr in humidified chambers.
Finally, after 8 hr, plates were cooled to room temperature for 10 min prior to luciferase assays. Luciferase reactions were performed using Luciferase Assay System (Cat. No.: E4550, Promega). Briefly, each well was washed with 100 μl of PBS1X and then 20 μl of lysis reagent were added into each well. Plates were shaken for 10 min, then 50 μl of Luciferase Assay Reagent were added to each well and luminescence was read with an integration time of 1 s and a gain of 110 in a Synergy 4 Microplate reader.
For the assessment of the half-maximal inhibitory concentration (IC50) for selected compounds, dose-response assays were performed. Compounds were serially diluted using DMSO starting at 30 μM until 1 nM. The assays were run as described above.

[1] = 8 h, 1 μM test compound, read-out: Inh. ATF6-Luc @ 1 μM [%]
[2] = dose-response 30 μM to 1 nM, read-out: IC50 ATF6-Luc reporter

| Structure (SMILES) | inhibition at 1 µM [1] [%] | IC50 [2] [µM] | inhibition at 1 µM (1 μM test compound, read-out: Inh. ATF6-Luc @ 1 μM [%]) [%] | inhibition at 1 µM (8 h, read-out: Inh. ATF6-Luc @ 1 μM [%], 1 μM test compound) [%] | IC50 (read-out: IC50 ATF6-Luc reporter [μM], dose-response 30 μM to 1 nM) [µM] |
| --- | --- | --- | --- | --- | --- |
| COc1ccccc1-c1cc(C(=O)Nc2cnn([C@H](C)c3ccc(C(F)(F)F)cc3C(F)(F)F)c2)no1 [Compound 88, (R)N-(1-(1-(2,4-bis(trifluoromethyl)phenyl)ethyl)-1H-pyrazol-4-yl)-5-(2-methoxyphenyl)isoxazole-3-carboxamide] | < 25 | > 10 |  |  |  |
| COc1ccccc1-c1cc(C(=O)Nc2cnn([C@@H](C)c3ccc(C(F)(F)F)cc3C(F)(F)F)c2)no1 [Compound 89, (S)N-(1-(1-(2,4-bis(trifluoromethyl)phenyl)ethyl)-1H-pyrazol-4-yl)-5-(2-methoxyphenyl)isoxazole-3-carboxamide] | < 25 | > 10 |  |  |  |
| Cc1nn(-c2ccc(C(F)(F)F)cc2C(F)(F)F)cc1NC(=O)c1cc(-c2ccccn2)on1 [Compound 90, N-(1-(2,4-bis(trifluoromethyl)phenyl)-3-methyl-1H-pyrazol-4-yl)-5-(pyridin-2-yl)isoxazole-3-carboxamide] | < 25 | > 10 |  |  |  |
| COc1ccccc1-c1cc(C(=O)Nc2cnn(Cc3ccc(C(F)(F)F)cc3C(F)(F)F)c2)no1 [Compound 91, N-(1-(2,4-bis(trifluoromethyl)benzyl)-1H-pyrazol-4-yl)-5-(2-methoxyphenyl)isoxazole-3-carboxamide] |  | > 10 | < 25 |  |  |
| Cc1nn(Cc2ccc(C(F)(F)F)cc2C(F)(F)F)cc1NC(=O)c1cc(-c2ccco2)on1 [Compound 92, N-(1-(2,4-bis(trifluoromethyl)benzyl)-3-methyl-1H-pyrazol-4-yl)-5-(furan-2-yl)isoxazole-3-carboxamide] | < 25 | > 10 |  |  |  |
| Cc1nn(-c2ccc(C(F)(F)F)cc2C(F)(F)F)cc1NC(=O)c1cc(-c2ccco2)on1 [Compound 94, N-(1-(2,4-bis(trifluoromethyl)phenyl)-3-methyl-1H-pyrazol-4-yl)-5-(furan-2-yl)isoxazole-3-carboxamide] | < 25 | > 10 |  |  |  |
| Cc1c(NC(=O)/C=C/c2ccco2)cnn1Cc1ccc(C(F)(F)F)cc1C(F)(F)F [Compound 95, (E)—N-(1-(2,4-bis(trifluoromethyl)benzyl)-5-methyl-1H-pyrazol-4-yl)-3-(furan-2-yl)acrylamide] | < 25 | > 10 |  |  |  |
| Cc1nn(Cc2ccc(C(F)(F)F)cc2C(F)(F)F)cc1NC(=O)/C=C/c1ccco1 [Compound 96, (E)—N-(1-(2,4-bis(trifluoromethyl)benzyl)-3-methyl-1H-pyrazol-4-yl)-3-(furan-2-yl)acrylamide] | < 25 | > 10 |  |  |  |
| Cc1c(NC(=O)c2cc(-c3ccccn3)on2)cnn1[C@@H](C)c1ccc(C(F)(F)F)cc1C(F)(F)F [Compound 98, (S)—N-(1-(1-(2,4-bis(trifluoromethyl)phenyl)ethyl)-5-methyl-1H-pyrazol-4-yl)-5-(pyridin-2-yl)isoxazole-3-carboxamide] | < 25 | > 10 |  |  |  |
| C[C@@H](c1ccc(C(F)(F)F)cc1C(F)(F)F)n1cc(NC(=O)c2cc(-c3ncccn3)on2)cn1 [Compound 102, (S)—N-(1-(1-(2,4-bis(trifluoromethyl)phenyl)ethyl)-1H-pyrazol-4-yl)-5-(pyrimidin-2-yl)isoxazole-3-carboxamide] | < 25 | > 10 |  |  |  |
| C[C@@H](c1ccc(C(F)(F)F)cc1C(F)(F)F)n1cc(NC(=O)c2cnc(-c3ccccn3)s2)cn1 [Compound 105, (S)—N-(1-(1-(2,4-bis(trifluoromethyl)phenyl)ethyl)-1H-pyrazol-4-yl)-2-(pyridin-2-yl)thiazole-5-carboxamide] |  |  |  | < 25 | > 10 |
| Cc1nc(-c2ccccn2)sc1C(=O)Nc1cnn([C@H](C)c2ccc(C(F)(F)F)cc2C(F)(F)F)c1 [Compound 106, (R)—N-(1-(1-(2,4-bis(trifluoromethyl)phenyl)ethyl)-1H-pyrazol-4-yl)-4-methyl-2-(pyridin-2-yl)thiazole-5-carboxamide] | < 25 | > 10 |  |  |  |
| Cc1nc(-c2ccccn2)sc1C(=O)Nc1cnn([C@@H](C)c2ccc(C(F)(F)F)cc2C(F)(F)F)c1 [Compound 107, (S)—N-(1-(1-(2,4-bis(trifluoromethyl)phenyl)ethyl)-1H-pyrazol-4-yl)-4-methyl-2-(pyridin-2-yl)thiazole-5-carboxamide] | < 25 | > 10 |  |  |  |
| C[C@H](c1ccc(C(F)(F)F)cc1F)n1cc(NC(=O)c2cc(-c3ccccn3)on2)cn1 [Compound 108, (R)—N-(1-(1-(2-fluoro-4-(trifluoromethyl)phenyl)ethyl)-1H-pyrazol-4-yl)-5-(pyridine-2-yl)isoxazole-3-carboxamide] | < 25 | > 10 |  |  |  |
| C[C@@H](c1ccc(C(F)(F)F)cc1F)n1cc(NC(=O)c2cc(-c3ccccn3)on2)cn1 [Compound 109, (S)—N-(1-(1-(2-fluoro-4-(trifluoromethyl)phenyl)ethyl)-1H-pyrazol-4-yl)-5-(pyridine-2-yl)isoxazole-3-carboxamide] | < 25 | > 10 |  |  |  |
| C[C@@H](c1ccc(F)cc1C(F)(F)F)n1cc(NC(=O)c2cc(-c3ccccn3)on2)cn1 [Compound 111, (S)—N-(1-(1-(4-fluoro-2-(trifluoromethyl)phenyl)ethyl)-1H-pyrazol-4-yl)-5-(pyridin-2-yl)isoxazole-3-carboxamide] | < 25 | > 10 |  |  |  |
| CC(c1ccc(C(F)(F)F)cc1C(F)(F)F)n1cc(NC(=O)c2cc(-c3ccccn3)nn2C)cn1 (stereo not drawn) [Compound 112, N-(1-(1-(2,4-bis(trifluoromethyl)phenyl)ethyl)-1H-pyrazol-4-yl)-1-methyl-3-(pyridin-2-yl)-1H-pyrazole-5-carboxamide] | 25 to 50 | > 10 |  |  |  |
| CC(c1ccc(C(F)(F)F)cc1C(F)(F)F)n1cc(NC(=O)c2cc(-c3ccccn3)n(C)n2)cn1 (stereo not drawn) [Compound 113, N-(1-(1-(2,4-bis(trifluoromethyl)phenyl)ethyl)-1H-pyrazol-4-yl)-1-methyl-5-(pyridin-2-yl)-1H-pyrazole-3-carboxamide] | < 25 | > 10 |  |  |  |
| Cc1cccc(-c2cc(C(=O)Nc3cnn(Cc4ccc(C(F)(F)F)cc4C(F)(F)F)c3)no2)n1 [Compound 115, N-(1-(2,4-bis(trifluoromethyl)benzyl)-1H-pyrazol-4-yl)-5-(6-methylpyridin-2-yl)isoxazole-3-carboxamide] | 25 to 50 | > 10 |  |  |  |
| Cc1cccc(-c2cc(C(=O)Nc3cnn([C@H](C)c4ccc(C(F)(F)F)cc4C(F)(F)F)c3)no2)n1 [Compound 116, (R)—N-(1-(1-(2,4-bis(trifluoromethyl)phenyl)ethyl)-1H-pyrazol-4-yl)-5-(6-methylpyridin-2-yl)isoxazole-3-carboxamide] | 25 to 50 | > 10 |  |  |  |
| Cc1cccc(-c2cc(C(=O)Nc3cnn([C@@H](C)c4ccc(C(F)(F)F)cc4C(F)(F)F)c3)no2)n1 [Compound 117, (S)—N-(1-(1-(2,4-bis(trifluoromethyl)phenyl)ethyl)-1H-pyrazol-4-yl)-5-(6-methylpyridin-2-yl)isoxazole-3-carboxamide] | < 25 | > 10 |  |  |  |
| O=C(Nc1cnn(Cc2ccc(C(F)(F)F)cc2C(F)(F)F)c1)c1cnc(-c2ccccn2)s1 [Compound 118, N-(1-(2,4-bis(trifluoromethyl)benzyl)-1H-pyrazol-4-yl)-2-(pyridin-2-yl)thiazole-5-carboxamide] | < 25 | 1 to 10 |  |  |  |
| C[C@H](c1ccc(C(F)(F)F)cc1C(F)(F)F)n1cc(NC(=O)c2cc(-c3ccccn3)[nH]n2)cn1 [Compound 119, (R)—N-(1-(1-(2,4-bis(trifluoromethyl)phenyl)ethyl)-1H-pyrazol-4-yl)-5-(pyridin-2-yl)-1H-pyrazole-3-carboxamide] | < 25 | > 10 |  |  |  |
| C[C@@H](c1ccc(C(F)(F)F)cc1C(F)(F)F)n1cc(NC(=O)c2cc(-c3ccccn3)[nH]n2)cn1 [Compound 120, (S)—N-(1-(1-(2,4-bis(trifluoromethyl)phenyl)ethyl)-1H-pyrazol-4-yl)-5-(pyridin-2-yl)-1H-pyrazole-3-carboxamide] | < 25 | > 10 |  |  |  |
